Data taken from patent US20110118199A1, “USE OF CNS PENETRATING ANTICANCER COMPOUNDS FOR THE TREATMENT OF PROTOZOAL DISEASES” (priority 2006, published 2011).
≈ marks a conversion by molar mass, not a printed value. Where two headings read alike, the source gives them in different places.

Key:
[1] = test system: Trypanosoma brucei rhodesiense (STIB 900 clone); test: Drug sensitivity assay (Alamar Blue, 72 h) against bloodstream form trypomastigotes in vitro; type: cell-based
Method: Bloodstream form trypomastigotes of the strains (a) and (c) are maintained in Minimal Essential Medium (MEM) with Earle's salts supplemented according to Baltz et al. (EMBO J. 4, 1273-1277, 1985) with 25 mM N-2-hydroxyethylpiperazine-N′-2-ethane-sulphonic acid (HEPES), 1 g/l additional glucose, 1% MEM non-essential amino acids (100×), 0.2 mM 2-mercaptoethanol, 2 mM sodium pyruvate, 0.1 mM hypoxanthine and 15% heat-inactivated horse serum.
All cultures and assays are conducted at 37° C. under an atmosphere of 5% CO2 in air.
Stock drug solutions are prepared in 100% dimethylsulphoxide (DMSO) (unless otherwise recommended by the supplier) at 10 mg/ml, and heated or sonicated if necessary to dissolve the sample. The stocks are kept at −20° C. For the assays, the compound is further diluted to the appropriate concentration using complete medium.
Assays are performed in 96-well microtiter plates, each well containing 100 μl of culture medium with 8×10^3 bloodstream forms with or without a serial drug dilution. The highest concentration of the test compounds is 90 μg/ml. Seven 3-fold drug dilutions are used, covering a range from 90 μg/ml to 0.123 μg/ml. Each drug is tested in duplicate. Active compounds are tested twice for confirmation. The final result is the mean of the four individual IC50 values. After 72 hrs of incubation, the plates are inspected under an inverted microscope to assure growth of the controls and sterile conditions.
Ten microliters of Alamar Blue (12.5 mg resazurin dissolved in 100 ml distilled water) are then added to each well and the plates are incubated for another 2 hours. The plates are read with a Spectramax Gemini XS microplate fluorometer (Molecular Devices Cooperation, Sunnyvale, Calif., USA) using an excitation wave length of 536 nm and an emission wave length of 588 nm. IC50 values are determined using the microplate reader software Softmax Pro (Molecular Devices Cooperation, Sunnyvale, Calif., USA).

[2] = test system: Trypanosoma brucei brucei STIB795; test: Sleeping sickness acute mouse model, T. b. brucei STIB795; type: in vivo, mice (NMRI); conditions: ip injection, four consecutive days, daily doses of 50 mg/kg; T. b. brucei STIB795 infected mice
Method: Trypanosoma brucei brucei STIB795 is used for this model. Female mice (NMRI), weighing 20-25 g, are maintained at 22° C. and 70% relative humidity.
(§1) Standard drugs as positive controls are Melarsoprol (Arsobal®, Specia, France) and Diminazene aceturate (Berenil®, Hoechst, Germany). Stock solutions of all test items were prepared in DMSO.

[3] = test system: Trypanosoma brucei rhodesiense (STIB 900 clone); test: Sleeping sickness acute mouse model, T. b. rhodesiense STIB900; type: in vivo, mice (NMRI)
Method: Sleeping Sickness: Acute Model—Trypanosome b. rhodesiense STIB900 Parasite and Animal Strains Trypanosoma brucei rhodesiense STIB900 is used for this model. Female mice (NMRI), weighing 20-25 g, are maintained at 22° C. and 70% relative humidity.
as §1

[4] = patients treated for African trypanomiasis; cited from earlier work
[5] = test system: Trypanosoma brucei brucei GVR 35; test: Sleeping sickness in vivo chronic CNS mouse model, T. b. brucei GVR 35; parameters: species or system mice (NMRI); conditions: 40 mg/kg single i.p. dose on day +21
Method: Sleeping Sickness: In Vivo Chronic CNS Model—Trypanosoma b. brucei GVR 35 Parasite and Animal Strains Trypanosoma brucei brucei GVR 35 which leads to a CNS infection by day 21 post-infection (Jennings and Gray, Contrib. Microbiol. Immunol. 7, 147-54, 1983) is used for this model.
Female mice (NMRI), weighing 20-25 g, are maintained at 22° C. and 70% relative humidity.
Infection: The bloodstream forms are from a stock of cryopreserved stabilates containing 10% glycerol. The stabilate is suspended in PSG (phosphate-saline-glucose) 6:4 (Lanham & Godfrey, Exp. Parasitol. 28, 521-534, 1970) to obtain a trypanosome concentration of 8×10^4/ml. Each mouse is intraperitoneally injected with 0.25 ml inoculum (equivalent to 2×10^4 trypanosomes) on day 0.
Experimental groups and control groups each consist of 5 mice.
Evaluation endpoint: On day +28 and then twice a week until day +50 parasitaemia of all animals is checked by tail blood examination and recorded based on a subjective scale ranging from (+)=1 trypanosome/20 fields to +++=>100 trypanosomes/field with a 20× objective. After day +50 the mice are checked only once per week until day +180. For mice dying before day +180 the day of death is recorded. At day +180, surviving and aparasitaemic mice are considered cured and then euthanized. […]

[6] = T. b. rhodesiense STIB 900, in vitro, 72 h incubation, Alamar Blue, read-out: IC50
[7] = 4 × 20 mg/kg p.o., determined on day 18

Cn1nnc2c(C(N)=O)ncn2c1=O [Temozolomide]
IC50 [1, 6]: 27.7 µg/mL (≈ 143 µM)
cure rate [2]: 100%
MSD (mean survival days) [3, 7]: >18 days
Cured/Infected ([3]; 4 × 50 mg/kg i.p.): 3/4
MSD (mean survival days) ([3]; 4 × 50 mg/kg i.p.): >51.5 days
Cured/Infected ([3]; 4 × 50 mg/kg p.o.): 4/4
MSD (mean survival days) ([3]; 4 × 50 mg/kg p.o.): >60 days

O=NN(CCCl)C(=O)NCCCl [Carmustine]
IC50 [1, 6]: 2.18 µg/mL (≈ 10.2 µM)

CN(C)/N=N/c1[nH]cnc1C(N)=O [Dacarbazine]
IC50 [1, 6]: 19.7 µg/mL (≈ 108 µM)
MSD (mean survival days) [3, 7]: 16 days
MSD (mean survival days) ([3]; 4 × 50 mg/kg p.o., determined on day 18): >18 days

COc1cccc2c1C(=O)c1c(O)c3c(c(O)c1C2=O)C[C@@](O)(C(=O)CO)C[C@@H]3O[C@H]1C[C@H](N)[C@H](O)[C@H](C)O1 [Doxorubicin]
IC50 [1, 6]: 0.015 µg/mL (≈ 0.0276 µM)

Nc1nc(N)nc(Nc2ccc([As]3SCC(CO)S3)cc2)n1 (stereo not drawn) [Melarsoprol]
often fatal reactive encephalopathy, share of treated patients [4]: up to 10%

CC(=O)O[C@@]12CO[C@@H]1C[C@H](O)[C@@]1(C)C(=O)[C@H](O)C3=C(C)[C@@H](OC(=O)[C@H](O)[C@@H](NC(=O)OC(C)(C)C)c4ccccc4)C[C@@](O)([C@@H](OC(=O)c4ccccc4)[C@H]21)C3(C)C [Docetaxel]
IC50 [1, 6]: 0.006 µg/mL (≈ 0.00743 µM)

CC(=O)O[C@H]1C(=O)[C@@]2(C)[C@H]([C@H](OC(=O)c3ccccc3)[C@]3(O)C[C@H](OC(=O)[C@H](O)[C@@H](NC(=O)c4ccccc4)c4ccccc4)C(C)=C1C3(C)C)[C@]1(OC(C)=O)CO[C@@H]1C[C@@H]2O [Paclitaxel]
IC50 [1, 6]: 0.01 µg/mL (≈ 0.0117 µM)

CC[C@]1(O)C[C@@H]2CN(CCc3c([nH]c4ccccc34)[C@@](C(=O)OC)(c3cc4c(cc3OC)N(C)[C@H]3[C@@](O)(C(=O)OC)[C@H](OC(C)=O)[C@]5(CC)C=CCN6CC[C@]43[C@@H]65)C2)C1 [Vinblastine]
IC50 [1, 6]: 0.13 µg/mL (≈ 0.16 µM)

N=C(N)c1ccc(/N=N/Nc2ccc(C(=N)N)cc2)cc1 [Diminazene diaceturate]
course of parasitaemia and death (negative control) [5]: all mice clear parasitaemia but relapse before day +40 and die between day +50 and day +60

C[C@]12CC[C@@H]3c4ccc(OC(=O)N(CCCl)CCCl)cc4CC[C@H]3[C@@H]1CC[C@@H]2O [Estramustine]
IC50 ([1]; 72 h): 41.5 µg/mL (≈ 94.2 µM)
